# Data reported in patent US10155722B2, “Antitumor compound targeting IDH2 mutation and method of use thereof” (CHIA TAI TIANQING PHARMACEUTICAL GROUP CO., LTD., priority 2015, dated 2018).
# pIC50: −log10 of the molar value. Like-named read-outs stand apart in the source and are kept apart here.
# Experiments:
# [1] = system: cells carrying the most common IDH1 mutant; conditions: cited from earlier work
# [2] = system: glioma cells carrying the IDH1 mutant; conditions: cited from earlier work
# glioma cells [3] = conditions: treatment of cell cultures; cited from earlier work
# glioma cells [4] = conditions: oral administration to mice with a transplanted tumour; cited from earlier work
# [5] = Pharmacokinetics parameters in rats after intragastric administration; format: in vivo; conditions: for AUC(0-inf) / Cmax / Tmax / half-life: rat, po, male rats, intragastric, single dose 5 mg/kg, plasma; for half-life (in words) / metabolism in vivo (in words) / plasma concentration compared with AG-6780 at the same dose: rats, 5 mg/kg intragastric
# Description: The pharmacokinetic parameters of compounds of the present application were determined by using the following method.
# Healthy male adult rats (7-9 weeks old) were used in this study. Each group of animals (3 male rats) was intragastrically administered once at a single dose of 5 mg/kg with 10% DMSO+70% PEG400+20% NS as adjuvants. The animals in the intragastric administration group were fasted overnight before this study. The fasting time period was from 10 hours before administration to 4 hours after administration.
# Blood samples were taken at 0.25, 0.5, 1, 2, 4, 6, 8 and 24 h after administration. The animals were anesthetized with isoflurane using an animal anesthesia machine, and then 0.3 mL whole blood samples were taken from the fundus venous plexus. The blood samples were placed in heparin anticoagulant tubes, and centrifuged for 5 min at 4° C. and 4000 rpm. The resulting plasmas were transferred to centrifuge tubes, and stored at −80° C. until analysis.
# Verified LC-MS/MS method was used to analyze the plasma samples. Plasma concentration-time data of animals were analyzed using WinNonlin (Professional Edition, version 6.3; Pharsight Company) software. The non-compartmental model was introduced for concentration analysis.
# [6] = system: cells carrying the most common IDH2 mutant; conditions: cited from earlier work
# [7] = system: leukemia cells carrying the IDH2 mutant; conditions: cited from earlier work
# IDH2 (R172K, 40-end) = IDH2 (R172K, 40-end) (Homo sapiens (Human), UniProt P48735, R172K); experiment: IDH2 (R172K, 40-end) inhibitory activity, NADPH depletion with diaphorase/resazurin readout; format: biochemical; conditions: 80 nM enzyme, 40 μM NADPH, 4 mM α-KG
# Chain of IDH2 (R172K, 40-end) (P48735 40-452 R172K): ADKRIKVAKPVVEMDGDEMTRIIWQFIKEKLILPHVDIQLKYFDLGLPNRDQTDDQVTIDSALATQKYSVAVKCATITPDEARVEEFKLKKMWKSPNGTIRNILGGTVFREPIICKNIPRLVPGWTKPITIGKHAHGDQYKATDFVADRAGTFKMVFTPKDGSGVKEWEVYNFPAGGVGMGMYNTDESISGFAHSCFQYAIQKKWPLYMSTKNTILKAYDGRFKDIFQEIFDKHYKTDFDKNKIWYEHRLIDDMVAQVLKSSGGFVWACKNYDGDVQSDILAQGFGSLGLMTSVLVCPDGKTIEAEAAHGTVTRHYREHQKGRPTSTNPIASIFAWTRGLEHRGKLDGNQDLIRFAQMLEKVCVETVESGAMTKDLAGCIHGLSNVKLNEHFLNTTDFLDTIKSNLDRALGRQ
# Description: The inhibitory activity of a compound against IDH2 (R172K, 40-end) was determined by the decrease of a helper factor NADPH. The test compound was pre-incubated with an enzyme and NADPH, and then a reaction was initiated by the addition of a-KG, and performed for 120 minutes under a linear condition. Then, the reaction was terminated by the addition of diaphorase (lipoamide dehydrogenase) and the corresponding substrate resazurin. Diaphorase terminated the IDH2m reaction by decreasing the available helper factor NADPH, which oxidized NADPH to NADP, and reduced resazurin to highly fluorescent resorufin. The amount of remaining helper factor NADPH after a specific reaction time was quantified via an easily detectable fluorophore. Specifically, 2.5 μl of a 3-fold gradient diluted test compound was added to a 384-well plate, and then 5 μl of a reaction buffer (20 mM Tris-HCl, PH7.5; 150 mM NaCl; 10 mM MgC12; 10 mM MnCl2; 0.4 mg/ml BSA and 2 mM DTT) containing 80 nM IDH2 (R172K, 40-end) and 40 μM NADPH was added. Then, the resulting test mixture was incubated for 120 minutes at a temperature of 23° C., and then 2.5 μl of the reaction buffer containing 4 mM α-KG was added to initiate the reaction. After incubating for 120 minutes at room temperature, 5 μl of a termination mixture (0.4 U/ml diaphorase and 40 μM resazurin) prepared with the reaction buffer was added to convert resazurin to resorufin to determine the remaining NADPH. After incubating for 10 minutes at a temperature of 23° C., a fluorescence value was determined through Flexstation 3 at Ex535/Em595.
smiles,measurement,setting,value
Cc1ccccc1C(C(=O)NC1CCCCC1)N(C(=O)Cn1ccnc1C)c1cccc(F)c1 (centres unmarked) [AGI-5198],generation of 2-HG,[1],inhibit the generation of 2-HG
same,expression of mature markers,[2],enhanced expression of mature markers
same,growth rate of glioma cells,glioma cells [3],inhibit the growth rate
same,growth rate of glioma cells,glioma cells [4],inhibit the growth rate
"O=C(Nc1cccc(C(F)(F)F)c1)Nc1cc(S(=O)(=O)NC2CC2)ccc1-c1ccsc1 [AGI-6780, reference compound]",AUC(0-inf),[5],559 ng·h/mL
same,Cmax,[5],191 ng/mL
same,Tmax,[5],2.83 h
same,half-life,[5],1.49 h
same,generation of 2-HG,[6],inhibit the generation of 2-HG
same,expression of mature markers,[7],enhanced expression of mature markers
"O=C(Nc1cccc(C(F)(F)F)c1)Nc1cc(C(F)(F)C(=O)NC2CC2)ccc1-c1ccsc1 [Example 1, N-cyclopropyl-2,2-difluoro-2-(4-(thiophen-3-yl)-3-(3-(3-(trifluoromethyl)phenyl)ureido)phenyl)acetamide]",pIC50,"IDH2 (R172K, 40-end)",7.85
O=C(Nc1cccc(C(F)(F)F)c1)Nc1cc(C(F)(F)C(=O)NCC(F)(F)F)ccc1-c1ccsc1 [Example 2],pIC50,"IDH2 (R172K, 40-end)",7.34
CC(C)NC(=O)C(F)(F)c1ccc(-c2ccsc2)c(NC(=O)Nc2cccc(C(F)(F)F)c2)c1 [Example 3],pIC50,"IDH2 (R172K, 40-end)",7.21
"N#CC1(NC(=O)C(F)(F)c2ccc(-c3ccsc3)c(NC(=O)Nc3cccc(C(F)(F)F)c3)c2)CC1 [Example 4, N-(1-cyanocyclopropyl)-2,2-difluoro-2-(4-(thiophen-3-yl)-3-(3-(3-(trifluoromethyl)phenyl)ureido)phenyl)acetamide]",pIC50,"IDH2 (R172K, 40-end)",7.25
"O=C(Nc1cccc(C(F)(F)F)c1)Nc1cc(C(F)(F)C(=O)NC2COC2)ccc1-c1ccsc1 [Example 5, 2,2-Difluoro-N-(oxetan-3-yl)-2-(4-(thiophen-3-yl)-3-(3-(3-(trifluoromethyl)phenyl)ureido)phenyl)acetamide]",pIC50,"IDH2 (R172K, 40-end)",7.53
same,AUC(0-inf),[5],858 ng·h/mL
same,Cmax,[5],495 ng/mL
same,Tmax,[5],0.42 h
same,half-life,[5],4.37 h
same,half-life (in words),[5],long half-life
same,metabolism in vivo (in words),[5],very good metabolism in vivo
same,plasma concentration compared with AG-6780 at the same dose,[5],higher plasma concentration
"O=C(Nc1ccc(F)c(C(F)(F)F)c1)Nc1cc(C(F)(F)C(=O)NC2CC2)ccc1-c1ccsc1 [Example 10, N-cyclopropyl-2,2-difluoro-2-(3-(3-(4-fluoro-3-(trifluoromethyl)phenyl)ureido)-4-(thiophen-3-yl)phenyl)acetamide]",pIC50,"IDH2 (R172K, 40-end)",6.41
"O=C(Nc1cccc(C(F)(F)F)c1)Nc1cc(C(F)(F)C(=O)NC2CC2)ccc1-c1ccccc1 [Example 12, N-cyclopropyl-2,2-difluoro-2-(2-(3-(3-(trifluoromethyl)phenyl)ureido)-[1,1′-biphenyl]-4-yl)acetamide]",pIC50,"IDH2 (R172K, 40-end)",7.27
"Cc1cc(-c2ccc(C(F)(F)C(=O)NC3CC3)cc2NC(=O)Nc2cccc(C(F)(F)F)c2)n(C)n1 [Example 13, N-cyclopropyl-2-(4-(1,3-dimethyl-1H-pyrazol-5-yl)-3-(3-(3-(trifluoromethyl)phenyl)ureido)phenyl)-2,2-difluoroacetamide]",pIC50,"IDH2 (R172K, 40-end)",6.98
"CC(C(=O)NC1CC1)c1ccc(-c2ccsc2)c(NC(=O)Nc2cccc(C(F)(F)F)c2)c1 (centres unmarked) [Example 14, N-cyclopropyl-2-(4-(thiophen-3-yl)-3-(3-(3-(trifluoromethyl)phenyl)ureido)phenyl) propanamide]",pIC50,"IDH2 (R172K, 40-end)",7.16
"CC(C)(C(=O)NC1CC1)c1ccc(-c2ccsc2)c(NC(=O)Nc2cccc(C(F)(F)F)c2)c1 [Example 15, N-cyclopropyl-2-methyl-2-(4-(thiophen-3-yl)-3-(3-(3-(trifluoromethyl)phenyl)ureido)phenyl)propanamide]",pIC50,"IDH2 (R172K, 40-end)",7.18
O=C(Cc1ccc(-c2ccsc2)c(NC(=O)Nc2cccc(C(F)(F)F)c2)c1)NC1CC1 [Example 16],pIC50,"IDH2 (R172K, 40-end)",7.12
"O=C(Nc1cccc(C(F)(F)F)c1)Nc1cc(C2(C(=O)NC3CC3)CC2)ccc1-c1ccsc1 [Example 17, N-cyclopropyl-1-(4-(thiophen-3-yl)-3-(3-(3-(trifluoromethyl)phenyl)ureido)phenyl) cyclopropanecarboxamide]",pIC50,"IDH2 (R172K, 40-end)",6.86
"CC(C)(C(=O)NC1CC1)c1ccc(-c2ccsc2)c(NC(=O)Nc2ccc3c(c2)C(=O)NC3)c1 [Example 18, N-cyclopropyl-2-methyl-2-(3-(3-(3-oxoisoindol-5-yl)ureido)-4-(thiophen-3-yl)phenyl) propanamide]",pIC50,"IDH2 (R172K, 40-end)",5.91
"O=C(Nc1cccc(C(F)(F)F)c1)Nc1cc(C2(C(=O)NC3CC3)CCC2)ccc1-c1ccsc1 [Example 19, N-cyclopropyl-1-(4-(thiophen-3-yl)-3-(3-(3-(trifluoromethyl)phenyl)ureido)phenyl) cyclobutanecarboxamide]",pIC50,"IDH2 (R172K, 40-end)",7.06
"CCC(C(=O)NC1CC1)c1ccc(-c2ccsc2)c(NC(=O)Nc2cccc(C(F)(F)F)c2)c1 (centres unmarked) [Example 20, N-cyclopropyl-2-(4-(thiophen-3-yl)-3-(3-(3-(trifluoromethyl)phenyl)ureido)phenyl) butanamide]",pIC50,"IDH2 (R172K, 40-end)",6.44
"NC(C(=O)NC1CC1)c1ccc(-c2ccsc2)c(NC(=O)Nc2cccc(C(F)(F)F)c2)c1 (centres unmarked) [Example 21, 2-Amino-N-cyclopropyl-2-(4-(thiophen-3-yl)-3-(3-(3-(trifluoromethyl)phenyl)ureido)phenyl)acetamide]",pIC50,"IDH2 (R172K, 40-end)",6.21
"O=C(Nc1cccc(C(F)(F)F)c1)Nc1cc(C(=O)NC2CC2)ccc1-c1ccsc1 [Example 23, N-cyclopropyl-4-(thiophen-3-yl)-3-(3-(3-(trifluoromethyl)phenyl)ureido)benzamide]",pIC50,"IDH2 (R172K, 40-end)",6.26
"CC(NC1CC1)c1ccc(-c2ccsc2)c(NC(=O)Nc2cccc(C(F)(F)F)c2)c1 (centres unmarked) [Example 24, 1-(5-(1-(cyclopropylamino)ethyl)-2-(thiophen-3-yl)phenyl)-3-(3-(trifluoromethyl)phenyl)urea]",pIC50,"IDH2 (R172K, 40-end)",6.51
"CC(NC(=O)C1CC1)c1ccc(-c2ccsc2)c(NC(=O)Nc2cccc(C(F)(F)F)c2)c1 (centres unmarked) [Example 27, N-(1-(4-(thiophen-3-yl)-3-(3-(3-(trifluoromethyl)phenyl)ureido)phenyl)ethyl) cyclopropanecarboxamide]",pIC50,"IDH2 (R172K, 40-end)",7.08
"O=C(Nc1cccc(C(F)(F)F)c1)Nc1cc(CNC(=O)C2CC2)ccc1-c1ccsc1 [Example 28, N-(4-(thiophen-3-yl)-3-(3-(3-(trifluoromethyl)phenyl)ureido)benzyl) cyclopropanecarboxamide]",pIC50,"IDH2 (R172K, 40-end)",7.26
same,AUC(0-inf),[5],844 ng·h/mL
same,Cmax,[5],414 ng/mL
same,Tmax,[5],0.33 h
same,half-life,[5],2.34 h
same,half-life (in words),[5],long half-life
same,metabolism in vivo (in words),[5],very good metabolism in vivo
same,plasma concentration compared with AG-6780 at the same dose,[5],higher plasma concentration
